By Km is commonly meant the concentration of substrate that gives half-maximal velocity.

Type in all cases: biochemical, Agrobacterium tumefaciens NT 1130
In experiment [1] the test system is 1,5-AG dehydrogenase. Put plainly: Electron acceptor utilisation by 1,5-AG dehydrogenase (relative activity). Particulars: 100 mM potassium phosphate buffer pH 8.0. The protocol: In 100 mM of the potassium phosphate buffer (pH 8.0), various electron acceptors were made present together with the present enzyme, where the activities on the respective electron acceptors were indicated as relative activities, which were as shown in Table 3.

Experiment [2] relates to 1,5-AG dehydrogenase. The experiment can be described thus: Km value by Lineweaver-Burk plot. Particulars: read-out: Km value with respect to 1,5-AG. The protocol:
The Km value of the present enzyme with respect to 1,5-AG was determined by the Lineweaver-Burk plot to reveal that it was about 0.5 mM.

For experiment [3], the system named is 1,5-AG dehydrogenase. Put plainly: Substrate specificity of 1,5-AG dehydrogenase (relative activity on various sugars). Particulars: substrate final concentration 5 mM; for Relative activity (substrate specificity): 1,5-AG = 100, nitrotetrazolium blue, pH 8.0, 37° C. On the procedure: The activity of the 1,5-AG dehydrogenase is measured in the following way. That is, 3.0 ml in total of an enzyme-containing solution comprised of 1.5 ml of 0.2M potassium phosphate buffer (pH 8.0), 0.3 ml of 0.25% by weight nitrotetrazolium blue, 0.3 ml of 2% by weight nonionic surface-active agent, 0.3 ml of an aqueous 50 mM 1,5-AG solution, 0.45 ml of water and 0.15 ml of an enzyme solution is reacted at 37° C., and a change in absorbance (ΔmOD/min) at 540 nm is measured. The molecular extinction coefficient (or molar absorption coefficient) of a formazan dye formed under such conditions is given as 16.7×10^3 and the quantity of the enzyme capable of forming 1 μmol of formazan in one minute is regarded as one unit, where the activity of the 1,5-AG dehydrogenase is determined according to the following expression; [formula] (1) Activity:
Relative activities (substrate specificity) of instances where the 1,5-AG was replaced with various sugar solutions (all having a final concentration of 5 mM) in the above method of measuring the enzymatic activity are shown in Table 2.

Consider `COc1cc(-c2ccc(-[n+]3nc(-c4ccccc4)nn3-c3ccc([N+](=O)[O-])cc3)c(OC)c2)ccc1-[n+]1nc(-c2ccccc2)nn1-c1ccc([N+](=O)[O-])cc1` [Nitrotetrazolium blue], for which the “Relative activity (electron acceptor)” value in the experiment with 1,5-AG dehydrogenase [1] (acceptor 1.0 mM) stood at 53%.
Take `OC[C@H]1OC[C@H](O)[C@@H](O)[C@@H]1O` [1,5-AG, 1,5-anhydroglucitol]: the Km in the experiment on 1,5-AG dehydrogenase [2] is approximately 500 µM. Moreover, in the experiment on 1,5-AG dehydrogenase [3], the “Action of the enzyme on the substrate (in words)” value (“Action of the enzyme” for short) is “strongly acted” and the “Relative activity (substrate specificity)” value came out at 100.
In the case of `O=O` [Oxygen], in the experiment on 1,5-AG dehydrogenase [1] (dissolved oxygen), the “Relative activity (electron acceptor)” value is 0%.
For `OC[C@H]1O[C@H](O[C@H]2[C@H](O)[C@@H](O)C(O)O[C@@H]2CO)[C@H](O)[C@@H](O)[C@@H]1O` (mixture of isomers) [Maltose], the “Relative activity (substrate specificity)” value in the experiment with 1,5-AG dehydrogenase [3] is 0.
As to `OC[C@@H](O)[C@@H](O)[C@H](O)[C@@H](O)CO` [Glucitol], the “Relative activity (substrate specificity)” value in the experiment on 1,5-AG dehydrogenase [3] worked out at 0.
Consider `NC(=O)c1ccc[n+]([C@@H]2O[C@H](COP(=O)([O-])OP(=O)(O)OC[C@H]3O[C@@H](n4cnc5c(N)ncnc54)[C@H](O)[C@@H]3O)[C@@H](O)[C@H]2O)c1` [NAD, nicotinamide adenine dinucleotide], for which the “Relative activity (electron acceptor)” value in the experiment on 1,5-AG dehydrogenase [1] (acceptor 1.0 mM) is listed as 0%.
In the case of `O=C(CO)[C@@H](O)[C@H](O)[C@H](O)CO` [D-fructose], in the experiment with 1,5-AG dehydrogenase [3], the “Relative activity (substrate specificity)” value came to 2.
Take `O[C@H]1[C@H](O)[C@@H](O)[C@H](O)[C@@H](O)[C@H]1O` [Myoinocitol]: the “Relative activity (substrate specificity)” value with 1,5-AG dehydrogenase [3] was 0.
On the same count and under the same terms, as for `O=C[C@H](O)[C@@H](O)[C@@H](O)[C@H](O)CO` [D-galactose], the figure is 0.
In the case of `O=C[C@H](O)[C@@H](O)[C@H](O)[C@H](O)CO` [D-glucose], in the experiment with 1,5-AG dehydrogenase [3], the “Action of the enzyme” value is recorded as “slightly acted” and the “Relative activity (substrate specificity)” value amounted to 11.
As to `O=C1C(Cl)=CC(=Nc2ccc(O)cc2)C=C1Cl` [2,6-Dichlorophenolindophenol], in the experiment with 1,5-AG dehydrogenase [1] (acceptor 0.1 mM), the “Relative activity (electron acceptor)” value is 100%.
As to `O=C(CO)[C@@H](O)[C@H](O)[C@@H](O)CO` [L-sorbose], in the experiment on 1,5-AG dehydrogenase [3], the “Action of the enzyme” value was “weakly acted” and the “Relative activity (substrate specificity)” value is recorded as 25.
`NC(=O)c1ccc[n+]([C@@H]2O[C@H](COP(=O)([O-])OP(=O)(O)OC[C@H]3O[C@@H](n4cnc5c(N)ncnc54)[C@H](OP(=O)(O)O)[C@@H]3O)[C@@H](O)[C@H]2O)c1` [NADP]: the “Relative activity (electron acceptor)” value in the experiment with 1,5-AG dehydrogenase [1] (acceptor 1.0 mM) was 0%.

The values above are taken from patent US5871949A, “Method of quantitative assay for 1,5-anhydroglucitol and reagent for quantitative assay” (Daiichi Pure Chemicals Co., Ltd., priority 1996, dated 1999).
